Measured values: the supplement of paper PMC13380429

How the values were obtained:
[1] = tested on: A549-ACE2 infected with SARS-CoV-2; assay: cell count relative to DMSO; higher = less toxic; conditions: 24 h
Caco-2 [2] = assay: cell viability relative to DMSO; higher = less toxic; conditions: 72 h
Calu-3 [3] = assay: as above; conditions: 72 h
HepG2 [4] = assay: as above; conditions: 72 h
U2OS [5] = assay: as above; conditions: 72 h
Vero E6 [6] = assay: as above; conditions: 72 h
[7] = tested on: A549-ACE2 infected with SARS-CoV-2; assay: SARS-CoV-2 infection rate relative to DMSO; higher = more infection; conditions: 24 h
A549-ACE2 [8] = assay: phospholipidosis EC50; higher = less potent phospholipidosis inducer
A549-ACE2 [9] = assay: drug-induced phospholipidosis relative to tamoxifen; higher = more phospholipidosis
[10] = tested on: A549-ACE2 infected with SARS-CoV-2; assay: morphology score (similarity to uninfected cells); higher = more like uninfected cells; conditions: 24 h
Caco-2 [11] = assay: relative viability EC50 (midpoint between 100% and the lowest measured viability); higher = less toxic; conditions: 72 h
Calu-3 [12] = assay: as above; conditions: 72 h
HepG2 [13] = assay: as above; conditions: 72 h
Vero E6 [14] = assay: as above; conditions: 72 h
Caco-2 [15] = assay: drug sensitivity score (DSS) for viability; higher = more toxic; extreme values may be limits of the assay; conditions: 72 h
Calu-3 [16] = assay: as above; conditions: 72 h
HepG2 [17] = assay: as above; conditions: 72 h
U2OS [18] = assay: as above; conditions: 72 h
Vero E6 [19] = assay: as above; conditions: 72 h
U2OS [20] = assay: relative viability EC50 (midpoint between 100% and the lowest measured viability); higher = less toxic; conditions: 72 h

CC(C)c1ccc(C(=O)c2cccs2)c(SCCCCCCCCN(C)C)n1
Conditions	SARS-CoV-2 infection rate [%]	cell count [%]	cell viability [%]	morphology score	phospholipidosis EC50 [nM]
A549-ACE2 [8], 24 h	–	–	–	–	2880
A549-ACE2 [8], 48 h	–	–	–	–	2900
A549-ACE2 [8], 72 h	–	–	–	–	4110
Caco-2 [2], 1 nM	–	–	106	–	–
Caco-2 [2], 10 nM	–	–	91.6	–	–
Caco-2 [2], 100 nM	–	–	97.6	–	–
Caco-2 [2], 1000 nM	–	–	94.6	–	–
Caco-2 [2], 10000 nM	–	–	47.3	–	–
Calu-3 [3], 1 nM	–	–	101	–	–
Calu-3 [3], 10 nM	–	–	120	–	–
Calu-3 [3], 100 nM	–	–	97.4	–	–
Calu-3 [3], 1000 nM	–	–	106	–	–
Calu-3 [3], 10000 nM	–	–	27.9	–	–
HepG2 [4], 1 nM	–	–	97.9	–	–
HepG2 [4], 10 nM	–	–	94.6	–	–
HepG2 [4], 100 nM	–	–	109	–	–
HepG2 [4], 1000 nM	–	–	103	–	–
HepG2 [4], 10000 nM	–	–	29.4	–	–
U2OS [5], 1 nM	–	–	99.4	–	–
U2OS [5], 10 nM	–	–	95.9	–	–
U2OS [5], 100 nM	–	–	101	–	–
U2OS [5], 1000 nM	–	–	98.9	–	–
U2OS [5], 10000 nM	–	–	71.6	–	–
Vero E6 [6], 1 nM	–	–	100	–	–
Vero E6 [6], 10 nM	–	–	99.8	–	–
Vero E6 [6], 100 nM	–	–	101	–	–
Vero E6 [6], 1000 nM	–	–	94.6	–	–
Vero E6 [6], 10000 nM	–	–	78.4	–	–
[1], 0.1 µM	–	98	–	–	–
[1], 0.3 µM	–	101	–	–	–
[1], 1 µM	–	111	–	–	–
[1], 3 µM	–	123	–	–	–
[7], 0.1 µM	99	–	–	–	–
[7], 0.3 µM	95	–	–	–	–
[7], 1 µM	74	–	–	–	–
[7], 3 µM	23	–	–	–	–
[10], 0.1 µM	–	–	–	-0.04	–
[10], 0.3 µM	–	–	–	0.17	–
[10], 1 µM	–	–	–	0.57	–
[10], 3 µM	–	–	–	0.88	–

drug-induced phospholipidosis [%], A549-ACE2 [9]
Conditions	0.3 µM	0.833333 µM	3.33333 µM	6.66667 µM	10 µM	30 µM
24 h	6.35	10.2	76.1	105	129	33.4
48 h	4.72	6.5	79.5	112	127	–
72 h	0.841	8.09	57.5	114	131	–

Conditions	drug sensitivity score	relative viability EC50 [nM]
Caco-2 [11]	–	2320
Caco-2 [15]	3.7	–
Calu-3 [12]	–	3550
Calu-3 [16]	3.6	–
HepG2 [13]	–	3390
HepG2 [17]	3.6	–
U2OS [18]	1.3	–
Vero E6 [14]	–	> 10000
Vero E6 [19]	1.4	–

Cc1ccccc1N(C)C(=O)c1ccc([S+]([O-])c2nccs2)c([N+](=O)[O-])c1 (stereo not drawn)
Conditions	SARS-CoV-2 infection rate, [7] [%]	cell count, [1] [%]	cell viability, Caco-2 [2] [%]	cell viability, Calu-3 [3] [%]	cell viability, HepG2 [4] [%]	cell viability, U2OS [5] [%]	cell viability, Vero E6 [6] [%]	morphology score, [10]
1 nM	–	–	96.9	102	106	98.5	103	–
10 nM	–	–	103	97.6	102	99.5	98.2	–
0.1 µM	101	99	–	–	–	–	–	-0.04
100 nM	–	–	98.5	102	95.1	95.6	100	–
0.3 µM	105	104	–	–	–	–	–	0.06
1 µM	92	99	–	–	–	–	–	0.22
1000 nM	–	–	82.8	103	89.5	41.7	88.1	–
3 µM	74	74	–	–	–	–	–	0.22
10000 nM	–	–	0.2	2.3	0.2	0	0.1	–

drug-induced phospholipidosis [%], A549-ACE2 [9]
Conditions	24 h	48 h	72 h
0.3 µM	6.61	5.74	-1.4
0.833333 µM	10.2	5.8	-1.83

Conditions	drug sensitivity score	relative viability EC50 [nM]
Caco-2 [11]	–	1860
Caco-2 [15]	8.4	–
Calu-3 [12]	–	3360
Calu-3 [16]	5.2	–
HepG2 [13]	–	2290
HepG2 [17]	7.3	–
U2OS [18]	12.5	–
U2OS [20]	–	805
Vero E6 [14]	–	2190
Vero E6 [19]	7.5	–

Oc1cc(CNC(=S)/C=C/c2cc(O)c(O)c(Br)c2)cc(O)c1O [NT157]
Conditions	SARS-CoV-2 infection rate, [7] [%]	cell count, [1] [%]	cell viability, Caco-2 [2] [%]	cell viability, Calu-3 [3] [%]	cell viability, HepG2 [4] [%]	cell viability, U2OS [5] [%]	cell viability, Vero E6 [6] [%]	morphology score, [10]
1 nM	–	–	78.4	104	101	102	89.7	–
10 nM	–	–	102	101	101	98.2	102	–
0.1 µM	104	104	–	–	–	–	–	0.06
100 nM	–	–	99.4	109	95.6	99.8	92.8	–
0.3 µM	103	107	–	–	–	–	–	0.02
1 µM	105	106	–	–	–	–	–	-0.23
1000 nM	–	–	90.2	103	74.1	64.9	91	–
3 µM	101	93	–	–	–	–	–	-0.08
10000 nM	–	–	25.7	25.6	25.4	23.5	32.9	–

drug-induced phospholipidosis [%], A549-ACE2 [9]
Conditions	0.3 µM	0.833333 µM	3.33333 µM	6.66667 µM	10 µM
24 h	2.74	-0.68	-0.71	22	29.2
48 h	2.03	-0.74	-5.67	–	–
72 h	3.76	-0.841	–	–	–

Conditions	drug sensitivity score	relative viability EC50 [nM]
Caco-2 [11]	–	2100
Caco-2 [15]	5.8	–
Calu-3 [12]	–	3380
Calu-3 [16]	3.9	–
HepG2 [13]	–	1350
HepG2 [17]	7.4	–
U2OS [18]	8.8	–
U2OS [20]	–	1070
Vero E6 [14]	–	2080
Vero E6 [19]	5.2	–

Cc1ccc(CNc2ncnc3ccc(-c4ccc(CO)o4)cc23)o1 [ML167]
Conditions	SARS-CoV-2 infection rate, [7] [%]	cell count, [1] [%]	cell viability, Caco-2 [2] [%]	cell viability, Calu-3 [3] [%]	cell viability, HepG2 [4] [%]	cell viability, U2OS [5] [%]	cell viability, Vero E6 [6] [%]	morphology score, [10]
1 nM	–	–	106	102	94.8	102	104	–
10 nM	–	–	97.3	91.5	102	99.7	105	–
100 nM	–	–	110	98.1	99.2	106	95	–
0.3 µM	98	99	–	–	–	–	–	0.14
1000 nM	–	–	84.8	85	93.5	97.7	96.5	–
3 µM	92	111	–	–	–	–	–	0.35
10 µM	89	103	–	–	–	–	–	0.47
10000 nM	–	–	93.6	83	70.5	99.9	89.1	–
30 µM	72	99	–	–	–	–	–	0.52

drug-induced phospholipidosis [%], A549-ACE2 [9]
Conditions	0.3 µM	0.833333 µM	3.33333 µM	6.66667 µM	10 µM	30 µM
24 h	2.53	0.81	-3.37	5.92	6.99	19.4
48 h	1.66	-0.31	-4.24	1.31	3.46	12.6
72 h	1.51	-4.06	-1.11	-0.124	2.4	14.2

Conditions	drug sensitivity score	relative viability EC50 [nM]
Caco-2 [11]	–	> 10000
Caco-2 [15]	1.2	–
Calu-3 [12]	–	> 10000
Calu-3 [16]	1.2	–
HepG2 [17]	2.3	–
U2OS [18]	0	–
U2OS [20]	–	> 10000
Vero E6 [14]	–	> 10000
Vero E6 [19]	0	–

Cc1nc(Nc2cnn(C3CCNCC3)c2)nc2c1N(C)C(=O)c1cc3ccccc3cc1N2C [HTH-01-015]
Conditions	SARS-CoV-2 infection rate [%]	cell count [%]	cell viability [%]	morphology score	phospholipidosis EC50 [nM]
A549-ACE2 [8], 24 h	–	–	–	–	3280
A549-ACE2 [8], 48 h	–	–	–	–	3720
Caco-2 [2], 1 nM	–	–	94.7	–	–
Caco-2 [2], 10 nM	–	–	99.7	–	–
Caco-2 [2], 100 nM	–	–	97.7	–	–
Caco-2 [2], 1000 nM	–	–	103	–	–
Caco-2 [2], 10000 nM	–	–	77.7	–	–
Calu-3 [3], 1 nM	–	–	97.1	–	–
Calu-3 [3], 10 nM	–	–	108	–	–
Calu-3 [3], 100 nM	–	–	99.1	–	–
Calu-3 [3], 1000 nM	–	–	108	–	–
Calu-3 [3], 10000 nM	–	–	59.4	–	–
HepG2 [4], 1 nM	–	–	106	–	–
HepG2 [4], 10 nM	–	–	89.3	–	–
HepG2 [4], 100 nM	–	–	101	–	–
HepG2 [4], 1000 nM	–	–	109	–	–
HepG2 [4], 10000 nM	–	–	67.7	–	–
U2OS [5], 1 nM	–	–	101	–	–
U2OS [5], 10 nM	–	–	108	–	–
U2OS [5], 100 nM	–	–	100	–	–
U2OS [5], 1000 nM	–	–	107	–	–
U2OS [5], 10000 nM	–	–	53.1	–	–
Vero E6 [6], 1 nM	–	–	106	–	–
Vero E6 [6], 10 nM	–	–	106	–	–
Vero E6 [6], 100 nM	–	–	104	–	–
Vero E6 [6], 1000 nM	–	–	98.5	–	–
Vero E6 [6], 10000 nM	–	–	74.1	–	–
[1], 0.1 µM	–	97	–	–	–
[1], 0.3 µM	–	102	–	–	–
[1], 1 µM	–	103	–	–	–
[1], 3 µM	–	99	–	–	–
[7], 0.1 µM	105	–	–	–	–
[7], 0.3 µM	105	–	–	–	–
[7], 1 µM	100	–	–	–	–
[7], 3 µM	77	–	–	–	–
[10], 0.1 µM	–	–	–	-0.27	–
[10], 0.3 µM	–	–	–	0.2	–
[10], 1 µM	–	–	–	0.05	–
[10], 3 µM	–	–	–	0.67	–

drug-induced phospholipidosis [%], A549-ACE2 [9]
Conditions	0.3 µM	0.833333 µM	3.33333 µM	6.66667 µM	10 µM	30 µM
24 h	2.9	6.1	51.1	120	118	24.5
48 h	6.71	6.12	41.5	172	169	–
72 h	6.1	4.78	42.6	–	–	–

Conditions	drug sensitivity score	relative viability EC50 [nM]
Caco-2 [11]	–	> 10000
Caco-2 [15]	0.6	–
Calu-3 [16]	1.6	–
HepG2 [17]	1	–
U2OS [18]	2	–
Vero E6 [19]	1.2	–
